Reference: patent publication US7446127B2, “Chroman carboxylic acid derivatives for the treatment of diabetes and lipid disorders” (SK Holdings Co, Ltd., priority 2003, dated 2008)

What was measured:
[1] = test system: differentiated 3T3-L1 adipocytes; assay: Glucose transport assay (2-deoxy-D-glucose uptake); format: cell-based; details: 48 hr; for Fold Stimulation (50 μM) of 2-deoxy-D-glucose uptake, Insulin + Compound: 50 μM compound + 100 nM insulin; for fold induction at 50 µM: Mus musculus, 50 μM compound alone, read-out: Fold Stimulation (50 μM) of 2-deoxy-D-glucose uptake, Compound only
Experimental: 3T3-L1 fibroblasts (American Type Culture Collection) were plated and grown for 2 days postconfluence in Dulbecco's modified Eagle's medium (DMEM; 4,500 mg/L glucose, HyClone) supplemented 10% FBS, 10 μg/mL penicillin and streptomycin in an atmosphere of 5% CO2 at 37° C. Adipocyte differentiation was then induced using standard protocol. After 48 hr, the differentiation medium was replaced with maintenance medium containing DMEM supplemented with 10% FBS. The maintenance medium was changed every 3 days until the cells were utilized for experimentation. Glucose transport activity was measured in the presence or absence of insulin and the protocol was modified from Kletzien, R F et al. (1992) Molecular Pharmacology 41:393-398. Briefly, differentiated 3T3-L1 adipocytes were incubated with vehicle (DMSO), insulin (100 nM) alone, test compound (50 μM) alone and a combination of insulin (100 nM)+test compound (50 μM) for 48 hr. Medium was changed twice a day in the presence of compound. Glucose uptake was measured using 2-Deoxy-D-[1−^3H] glucose as label after 90 min incubation with each compound. […] In the series of compounds, one of the best result was obtained with 7-[2-(5-methyl-2-phenyl-4-oxazolyl)-ethoxy]-chroman-3-carboxylic acid (Example 1).

db/db mice [2] = assay: Efficacy test for blood glucose lowering (db/db mice); format: in vivo; details: 30 mg/kg/d oral; for Fatty acid % reduction / Insulin % reduction: plasma; for Glucose Max % efficacy: suspension in 0.5% CMC + 0.2% Tween 80; for Glucose Observed value: suspension in 0.5% CMC + 0.2% Tween 80, control 261.2
Experimental: (§1) Mice used in this study were standard model of type II diabetes developed by Jackson Laboratories (Bar Harbor, Me.). Male, 8-week-old db/db mice were housed six per cage in hanging wire bottom cages with standard laboratory conditions. The mice had free access to normal chow (Purina Rodent Chow) and water. At the age of 11-12 weeks, mice were bled in the tail for glucose matching among the groups (n=6 per group). The grouped mice were then dosed orally with vehicle (CMC) or with compounds of formula I (30 mg/kg/d) for 7 days. Compound of formula I at 30 mg/kg/d was dosed as suspension in 0.5% CMC+0.2% Tween 80 in H2O. Fresh suspension was prepared for 8 days dosing and kept in a refrigerator. The suspension was administered by oral gavage daily in the morning. The control group received vehicle (dose 10 mL/kg). Blood glucose concentrations were monitored at basal and 3 hr post dose on day 4 and 8. For blood sampling, mice were placed in a restrainer and drop of blood was obtained by nick in the tip of the tail. Blood glucose concentrations were determined either by putting a drop of blood on a glucose strip for analysis by a glucometer or using a 10 μL plasma sample in a YSI (Yellow Spring Instruments, OH) analyzer. Results are expressed as absolute blood glucose concentrations (mg/dL) and % reduction that is achieved reduction relative to vehicle treated control group. Animals having more than 300 mg/dL of blood glucose were used for testing. Statistical significance (p<0.05) is given versus the appropriate sample in vehicle treated animals. On day 7, the mice were fasted overnight for 18 hrs and were bled in the tail for the glucose level checking then dosed with the testing compounds (30 mg/kg/d). After 2 hr, blood samples were taken and the rats were dosed with 10% glucose in water (10 ml/kg) orally and blood glucose was monitored at 15, 30, 60, 90 and 120 min after dosing. The blood samples were centrifuged and plasma samples were collected and analyzed for insulin, Tg and FFA.

db/db mice [3] = assay: Oral Glucose Tolerance Test (OGTT) in db/db mice; format: in vivo; details: 30 mg/kg/d for 9 days; for AUC of Glucose in db/db, Observed value: control 40858
Experimental: as §1, with “FFA. An Oral Glucose Tolerance Test (OGTT) was performed both in db/db mice and in high fat (HF) rats after dosing 30 mg/kg/d of compounds of Examples 1 and 2 for 9 days. For OGTT and ITT studies, Sprague-Dawley rats were prepared by feeding high fat (HF) diet (60% calorie from fat) for 6 weeks. Before the study, they were matched into groups on the basis of blood glucose levels.” for “FFA.”

high fat (HF) rats = assay: Oral Glucose Tolerance Test (OGTT) in high fat (HF) rats; format: in vivo, Sprague-Dawley rats; details: 30 mg/kg/d for 9 days; for AUC of Glucose in high fat rat, Observed value: control 14053
Experimental: (§2) An Oral Glucose Tolerance Test (OGTT) was performed both in db/db mice and in high fat (HF) rats after dosing 30 mg/kg/d of compounds of Examples 1 and 2 for 9 days. For OGTT and ITT studies, Sprague-Dawley rats were prepared by feeding high fat (HF) diet (60% calorie from fat) for 6 weeks. Before the study, they were matched into groups on the basis of blood glucose levels.

HF rat = assay: Insulin tolerance test (ITT) in HF rat; format: in vivo, Sprague-Dawley rats; details: 30 mg/kg oral, insulin 0.25 U/kg i.p. 2 hr later; for AUC of Glucose in high fat rat, Observed value: control 13359
Experimental: as §2, with “levels. Insulin tolerance test (ITT) was performed in HF rat which were prepared in the same manner with OGTT test animal. On the day of the study, rats were orally dosed with the testing compounds (30 mg/kg) and 2 hr later, rats were dosed with insulin (0.25 U/kg, i.p.) in 0.1% BSA solution in saline. Blood glucose of the rat was measured at 15, 30, 60, 120 min after dose.” for “levels.”

STZ rat = assay: Blood glucose lowering effect in STZ rat; format: in vivo; details: STZ rat (data not shown)
[4] = Solubility in dosing vehicle; format: physicochemical
From the text: It appeared that compounds of Examples 1 and 2 were not soluble in 0.5% CMC vehicle.

[5] = test system: differentiated 3T3-L1 adipocytes; assay: Glucose transport assay (2-deoxy-D-glucose uptake); format: cell-based

solubility in 0.5% CMC vehicle [4] | SMILES | Fold Stimulation (50 μM) of 2-deoxy-D-glucose uptake, Insulin + Compound [1] [fold] | fold induction at 50 µM [1] | Fatty acid % reduction (db/db mice [2]) [%] | Insulin % reduction (db/db mice [2]) [%] | Glucose Max % efficacy (db/db mice [2]) [%] | Glucose Observed value (db/db mice [2]) [mg/dL] | AUC of Glucose in db/db, % reduction (db/db mice [3]) [%] | AUC of Glucose in db/db, Observed value (db/db mice [3]) [mg/dl × 120 min] | AUC of Glucose in high fat rat, % reduction (high fat (HF) rats) [%] | AUC of Glucose in high fat rat, Observed value (high fat (HF) rats) [mg/dl × 120 min] | AUC of Glucose in high fat rat, % reduction (HF rat) | AUC of Glucose in high fat rat, Observed value (HF rat) [mg/dl × 120 min] | blood glucose lowering effect (STZ rat) | glucose uptake, dose dependence on compound ([5]; 0-100 μM compound in the presence of 100 nM insulin (FIG. 2)) | glucose uptake of insulin in presence of compound ([5]; 50 μM compound, 0.1-1,000 nM insulin (FIG. 3)) | stimulation of basal glucose uptake by compound per se ([5]; 3T3-L1 adipocytes, no insulin, 0.1 to 100 μM)
not soluble | Cc1oc(-c2ccccc2)nc1CCOc1ccc2c(c1)OCC(C(=O)O)C2 (stereo not shown) [Example 1, 7-[2-(5-Methyl-2-phenyl-4-oxazolyl)ethoxy]chromane-3-carboxylic acid] | 8.4 | 1.3 | −33.7 | −62.4 | 80.0 | 132.2 | 41.5 | 28870 | 13.1 | 12206 | 27.7 (p < 0.02) % | 11014 | did not reduce blood glucose | dose-dependent manner | further enhanced glucose uptake of insulin in dose dependent manner | did not stimulate the basal glucose uptake
not soluble | Cc1oc(-c2ccc(-c3ccccc3)cc2)nc1CCOc1ccc2c(c1)OCC(C(=O)O)C2 (stereo not shown) [Example 2, 7-[2-(5-Methyl-2-(4-phenyl)phenyl-4-oxazolyl)ethoxy]chromane-3-carboxylic acid] | 6.4 | 1.5 | −21.1 | −72.7 | 70.3 | 148.3 | 14.0 | 32406 | 10.1 | 12631 | 4.2% | 12796 | did not reduce blood glucose |  |  | 
